The compounds below were run against PKCθ (Homo sapiens, UniProt Q04759) (assay: PKCθ enzyme data at 1 mM ATP).
Assay type: biochemical

Chain of PKCθ (Q04759 whole entry): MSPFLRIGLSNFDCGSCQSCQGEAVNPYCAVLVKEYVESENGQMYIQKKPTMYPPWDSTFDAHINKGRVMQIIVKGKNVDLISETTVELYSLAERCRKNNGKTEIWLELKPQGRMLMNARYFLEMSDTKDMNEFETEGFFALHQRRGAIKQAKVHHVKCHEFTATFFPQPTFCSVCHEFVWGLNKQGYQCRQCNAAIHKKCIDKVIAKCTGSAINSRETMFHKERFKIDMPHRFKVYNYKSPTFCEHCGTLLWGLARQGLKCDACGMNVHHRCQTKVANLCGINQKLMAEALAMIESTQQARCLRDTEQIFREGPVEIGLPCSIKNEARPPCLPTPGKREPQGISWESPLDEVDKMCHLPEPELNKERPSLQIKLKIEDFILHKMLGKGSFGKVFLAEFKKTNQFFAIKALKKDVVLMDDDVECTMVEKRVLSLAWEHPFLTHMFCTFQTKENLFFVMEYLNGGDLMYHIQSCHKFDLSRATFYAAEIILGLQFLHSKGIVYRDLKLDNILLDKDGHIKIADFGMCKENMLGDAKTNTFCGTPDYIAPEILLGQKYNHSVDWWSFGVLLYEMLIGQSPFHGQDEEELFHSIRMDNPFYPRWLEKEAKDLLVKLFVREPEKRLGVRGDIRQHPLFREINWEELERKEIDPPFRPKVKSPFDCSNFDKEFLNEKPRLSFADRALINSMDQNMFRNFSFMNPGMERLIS

| IC50 [nM] | Structure (SMILES) |
| --- | --- |
| 100 to 500 | O=C1NC(=O)C(c2nn(C3CCNCC3)c3ccccc23)=C1c1c[nH]c2sccc12 [G.1.11] |
| 100 to 500 | CN1CCN(c2nc3c(c(C4=C(c5c[nH]c6sccc56)C(=O)NC4=O)n2)CCC3)CC1 [F.4.10] |
| 500 to 1000 | CN1CCN(c2nc(C3=C(c4c[nH]c5sccc45)C(=O)NC3=O)c3c(O)cccc3n2)CC1 [F.4.12] |
| < 100 | O=C1NC(=O)C(c2c[nH]c3sccc23)=C1c1nc(N2CC[C@H](N3CCCC3)[C@@H](F)C2)nc2ccccc12 [E.1.30] |
| 100 to 500 | CNC1CCN(c2nc(C3=C(c4c[nH]c5sccc45)C(=O)NC3=O)c3ccccc3n2)C1 (stereo not shown) [G.1.7] |
| 100 to 500 | O=C1NC(=O)C(c2c[nH]c3sccc23)=C1c1nc(N2CCC(CN3CCCC3)CC2)nc2ccccc12 [E.1.11] |
| 100 to 500 | O=C1NC(=O)C(c2nn(CC3CCN(CCF)CC3)c3ccccc23)=C1c1c[nH]c2sccc12 [F.4.20] |
| 100 to 500 | CN(C)[C@H]1CC[C@@H](Cn2nc(C3=C(c4c[nH]c5sccc45)C(=O)NC3=O)c3ccccc32)CC1 [F.4.18] |
| < 100 | O=C1NC(=O)C(c2c[nH]c3sccc23)=C1c1nc(N2CCn3cnc(CO)c3C2)nc2ccccc12 [E.1.50] |
| 500 to 1000 | O=C1NC(=O)C(c2c[nH]c3ccsc23)=C1c1nc(NCC2CCCCN2)nc2ccccc12 (stereo not shown) [G.1.9] |
| < 100 | O=C1NC(=O)C(c2c[nH]c3ccsc23)=C1c1nc(N2CCC(N3CCCC3)CC2)nc2ccccc12 [E.2.6] |
| 100 to 500 | O=C1NC(=O)C(c2c3n(c4ccccc24)CCC(CO)C3)=C1c1c[nH]c2sccc12 (stereo not shown) [Example #1, 3-(8-(Hydroxymethyl)-6,7,8,9-tetrahydropyrido[1,2-a]indol-10-yl)-4-(6H-thieno[2,3-b]pyrrol-4-yl)-1H-pyrrole-2,5-dione] |
| < 100 | O=C1NC(=O)C(c2c[nH]c3ccsc23)=C1c1nc(N2CCC(N3CCCCC3)CC2)nc2ccccc12 [E.2.2] |
| < 100 | CN1CCN(c2nc(C3=C(c4c[nH]c5ccsc45)C(=O)NC3=O)c3ccc(F)cc3n2)CC1 [F.3.5] |
| < 100 | CCC1(N)CCN(c2nc(C3=C(c4c[nH]c5sccc45)C(=O)NC3=O)c3ccccc3n2)CC1 [E.1.43] |
| < 100 | O=C1NC(=O)C(c2c[nH]c3ccsc23)=C1c1nc(N2CCN3CCC[C@@H]3C2)nc2ccccc12 [E.2.1, (R)-3-(2-(Hexahydropyrrolo[1,2-a]pyrazin-2(1H)-yl)quinazolin-4-yl)-4-(4H-thieno[3,2-b]pyrrol-6-yl)-1H-pyrrole-2,5-dione] |

Source: patent publication US20110152243A1, “NOVEL THIENOPYRROLE COMPOUNDS” (ABBOTT LABORATORIES, priority 2009, published 2011)
